Test results as given in US11247965B2 (VenatoRx Pharmaceuticals, Inc., priority 2017, dated 2022).

Key:
[1] = In vitro cytotoxicity, MTT cell viability assay in HepG2 cells; format: cell-based; details: human, Cytotoxicity CC50
Protocol: To evaluate antiviral selectivity, the cytotoxic activity of each compound was determined using a standard cell viability assay performed on the parental HepG2 cell line. Cell viability was determined by measuring the conversion of 3-(4,5-dimethylthiazol-2-yl)-2,5-diphenyltetrazolium bromide (MTT) to the insoluble formazan salt crystal that occurs in live cells. Briefly, HepG2 cells were seeded in 96-well plates at a density of 20,000 cells per well in EMEM+10% FBS (complete growth medium) and allowed to adhere overnight in a 37° C., 5% CO2 humidified incubator. The next day, test agents were prepared by performing 8 half-log10 serial dilutions in 100% DMSO at 200× the final desired concentration in the assay. Compounds were tested over a range of concentrations from 30 μM to 1.0 nM in the assay. HepG2 cells were incubated in the presence of various concentrations of CAMs for 7 days in a 37° C., 5% CO2 humidified incubator. At the completion of the 7-day incubation period, MTT reagent was added to each well and the mixture was incubated for an additional 3-4 hours. At the completion of the incubation period, all wells were aspirated to remove the culture medium. The formazan crystals were solubilized from the cell monolayers with 100% DMSO. Plates were briefly mixed on an orbital shaker and absorbance was measured at 492 nm using a Perkin-Elmer EnVision multi-label plate reader. All absorbance values were converted to a percentage of the signal obtained from the vehicle treated controls. Absorbance values at 492 nm are directly proportional to the number of viable cells present in the sample. A CC50 value (cytotoxic concentration that results in loss of 50% cell viability) was calculated from the dose-response curve by 4-parameter, non-linear regression analysis using the GraphPad Prism software. The positive control compound, staurosporine, reduced the viability of HepG2 cells in a dose-dependent manner (CC50=100 nM).

[2] = test system: HBV replication in HepAD38 cells; assay: Anti-HBV activity in HepAD38 cells, extracellular HBV DNA by QPCR; format: cell-based, HBV (genotype D, serotype ayw); details: Hepatitis B virus, HePAD38, 168 h, read-out: Anti-HBV EC50, HepAD38 cells, extracellular HBV DNA by QPCR, 7 days of incubation
Protocol: The anti-HBV activity of the Capsid Assembly Modulators (CAMs) was evaluated in a cell based assay utilizing the human hepatoma cell line HepAD38 (Ladner, S K., et al., 1998). HepAD38 cells were derived from the parental line, HepG2, that were stably transfected with a construct containing an HBV genome (genotype D, serotype ayw) under the control of a tetracycline repressible CMV promoter. Upon removal of tetracycline, viral pre-genomic RNA (pgRNA) and mRNAs are expressed and infectious viral particles are assembled and secreted into the culture medium providing a reliable, robust system to measure multiple steps of the HBV life cycle. Disruption of capsid formation results in reduced levels of DNA-containing virus particles that are released into the culture supernatant. To quantify the effect of CAMs on HBV replication, we developed a sensitive QPCR-based assay that measures extracellular HBV DNA levels upon treatment of HepAD38 cells with various concentrations of test compounds.
HepAD38 cells were maintained in DMEM/F12 medium containing 10% FBS, 400 μg/mL G418 and 0.3 μg/mL tetracycline (tet+medium) to maintain repression of HBV replication. To evaluate each compound, HepAD38 cells were seeded into 24-well collagen coated culture plates (Corning BioCoat) at a density of 200,000 cells per well in 1 mL of tet+medium and allowed to adhere overnight at 37° C., 5% CO2 in a humidified incubator. The following day, test articles were subjected to half-logo serial dilutions, ranging from 30 μM to 10 nM, in 100% DMSO at 200× the desired final assay concentration. Tetracycline was removed from the cells by aspirating the tet+medium and washing the cells once with growth medium lacking tetracycline (tet-). Various concentrations of each compound were added to the appropriate wells (1:200 dilution) and the plates were returned to the incubator. Following 7 days of incubation, culture supernatants were harvested and HBV DNA levels were evaluated by QPCR and compared to the vehicle treated control wells (i.e. DMSO alone).
To quantify HBV DNA levels, cell culture supernatants were diluted 1:10 in sterile, nuclease-free water (Gibco). The diluted supernatants were subsequently added to a PCR master mix containing 1× Roche Light Cycler Master Mix, 0.5 μM forward primer, 0.5 μM reverse primer (Fwd:
0.2 μM Roche Universal Probe Library Probe 25. The volume was brought to 20 μL with nuclease-free water and amplification of the HBV target sequence was performed using a Roche LightCycler 480 QPCR instrument. PCR extended out to 45 cycles with each cycle consisting of a denaturation step at 95° C. for 10 sec., followed by an annealing step at 60° C. for 10 sec. and a brief extension step at 72° C. for 1 sec.
Extracellular HBV DNA levels, expressed in copies/mL, were determined by comparison to a standard curve (10^2-10^9 copies/mL) using the Roche LightCycler analysis software. These values were subsequently converted to percent inhibition of HBV replication by dividing the HBV DNA levels in the experimental samples with those obtained from the vehicle control (˜1-2×10^5 copies/mL). Potency, expressed as an EC50 (the effective concentration required to inhibit […] of HBV replication), was calculated from the dose-response curve using a 4-parameter non-linear regression analysis (GraphPad Prism). The nucleoside analog inhibitor entecavir was used as a positive control to validate each assay run. The EC50 value of entecavir in the HepAD38 assay was 0.5 nM, as previously reported in the literature.

O=C(Nc1ccc(F)c(F)c1)c1ccc(F)c(C(F)(F)C(=O)N(CCO)CCO)c1 [Example 16, 3-(2-(bis(2-hydroxyethyl)amino)-1,1-difluoro-2-oxoethyl)-N-(3,4-difluorophenyl)-4-fluorobenzamide]
CC50 at 7 days [1]: > 30 µM | EC50 [2]: 5 to 30 µM

Cc1cc(NC(=O)c2ccc(Cl)c(C(F)(F)C(=O)N3CCC(O)CC3)c2)ccc1F [Example 17, 4-chloro-3-(1,1-difluoro-2-(4-hydroxypiperidin-1-yl)-2-oxoethyl)-N-(4-fluoro-3-methylphenyl)benzamide]
CC50 at 7 days [1]: 5 to 30 µM | EC50 [2]: < 5 µM

CC(C)(C)NC(=O)C(F)(F)c1cc(C(=O)Nc2ccc(F)c(F)c2)ccc1F [Example 18, 3-(2-(tert-butylamino)-1,1-difluoro-2-oxoethyl)-N-(3,4-difluorophenyl)-4-fluorobenzamide]
CC50 at 7 days [1]: 5 to 30 µM | EC50 [2]: 5 to 30 µM

CCC(C)(C)NC(=O)C(F)(F)c1cc(C(=O)Nc2ccc(F)c(F)c2)ccc1F [Example 19, 3-(1,1-difluoro-2-oxo-2-(tert-pentylamino)ethyl)-N-(3,4-difluorophenyl)-4-fluorobenzamide]
CC50 at 7 days [1]: 5 to 30 µM | EC50 [2]: < 5 µM

O=C(Nc1ccc(F)c(F)c1)c1ccc(F)c(C(F)(F)C(=O)NC2CCCC2)c1 [Example 20, 3-(2-(cyclopentylamino)-1,1-difluoro-2-oxoethyl)-N-(3,4-difluorophenyl)-4-fluorobenzamide]
CC50 at 7 days [1]: 5 to 30 µM | EC50 [2]: 5 to 30 µM

COc1ccccc1NC(=O)C(F)(F)c1cc(C(=O)Nc2ccc(F)c(F)c2)ccc1F [Example 21, 3-(1,1-difluoro-2-((2-methoxyphenyl)amino)-2-oxoethyl)-N-(3,4-difluorophenyl)-4-fluorobenzamide]
CC50 at 7 days [1]: 5 to 30 µM | EC50 [2]: 5 to 30 µM

O=C(Nc1ccc(F)c(F)c1)c1ccc(F)c(C(F)(F)C(=O)Nc2ccc(F)cn2)c1 [Example 22, 3-(1,1-difluoro-2-((5-fluoropyridin-2-yl)amino)-2-oxoethyl)-N-(3,4-difluorophenyl)-4-fluorobenzamide]
CC50 at 7 days [1]: > 30 µM | EC50 [2]: 5 to 30 µM

Cc1cc(NC(=O)c2ccc(Cl)c(C(F)(F)C(=O)NC(C)C)c2)ccc1F [Example 23, 4-chloro-3-(1,1-difluoro-2-(isopropylamino)-2-oxoethyl)-N-(4-fluoro-3-methylphenyl)benzamide]
CC50 at 7 days [1]: 5 to 30 µM | EC50 [2]: 5 to 30 µM

CC(C)(CO)NC(=O)C(F)(F)c1cc(C(=O)Nc2ccc(F)c(F)c2)ccc1F [Example 24, 3-(1,1-difluoro-2-((1-hydroxy-2-methylpropan-2-yl)amino)-2-oxoethyl)-N-(3,4-difluorophenyl)-4-fluorobenzamide]
CC50 at 7 days [1]: 5 to 30 µM | EC50 [2]: 5 to 30 µM

O=C(Nc1ccc(F)c(F)c1)c1ccc(F)c(C(F)(F)C(=O)N2CCCCC(O)C2)c1 (centres unmarked) [Example 25, 3-(1,1-difluoro-2-(3-hydroxyazepan-1-yl)-2-oxoethyl)-N-(3,4-difluorophenyl)-4-fluorobenzamide]
CC50 at 7 days [1]: 5 to 30 µM | EC50 [2]: < 5 µM

O=C(Nc1ccc(F)c(F)c1)c1ccc(F)c(C(F)(F)C(=O)NC2CCC(O)CC2)c1 (centres unmarked) [Example 26, 3-(1,1-difluoro-2-(((1r,4r)-4-hydroxycyclohexyl)amino)-2-oxoethyl)-N-(3,4-difluorophenyl)-4-fluorobenzamide]
CC50 at 7 days [1]: 5 to 30 µM | EC50 [2]: < 5 µM

Cc1cc(NC(=O)c2ccc(F)c(C(F)(F)C(=O)NC(C)(C)CO)c2)ccc1F [Example 28, 3-(1,1-difluoro-2-((1-hydroxy-2-methylpropan-2-yl)amino)-2-oxoethyl)-4-fluoro-N-(4-fluoro-3-methylphenyl)benzamide]
CC50 at 7 days [1]: > 30 µM | EC50 [2]: 5 to 30 µM

Cc1cc(NC(=O)c2ccc(F)c(C(F)(F)C(=O)N3CCC(O)CC3)c2)ccc1F [Example 29, 3-(1,1-difluoro-2-(4-hydroxypiperidin-1-yl)-2-oxoethyl)-4-fluoro-N-(4-fluoro-3-methylphenyl)benzamide]
CC50 at 7 days [1]: > 30 µM | EC50 [2]: < 5 µM
